Drawing on patent US10745399B2 (priority 2015, dated 2020), this text covers IC50 for one compound.

The target in one experiment is mTOR (human) (Homo sapiens (Human), UniProt P42345). The experiment is described as follows: mTOR (human) radiometric kinase assay. It counts as biochemical. On the procedure:
mTOR (human) was incubated with 50 mM HEPES pH 7.5, 1 mM EGTA, 0.01% Tween 20, 2 mg/ml of the substrate, 3 mM MnCl2 and [γ-^33P-ATP] (specific activity approximately 500 cpm/pmol, concentration as necessary). The reaction was initiated by addition of MgATP solution. After incubation at room temperature for 40 minutes, the reaction was stopped by addition of 3% phosphoric acid. 10 μl of the reaction solution were then transferred dropwise onto a P30 filtermat and washed three times for 5 min in 75 mM phosphoric acid and once in methanol, dried and evaluated by means of liquid scintillation counting.

In experiment [1] the test system is CHK2 phosphorylation (phospho-Thr68) in HCT116 cells. Nature of the experiment: Cellular pCHK2 assay, bleomycin-induced phosphorylation of CHK2 (phospho-Thr68), immunofluorescence high content. The class given is cell-based. The following applies: Homo sapiens, HCT-116, 4 h, read-out: IC50 (pCHK2).
In the next experiment the target is human recombinant ATM (Homo sapiens (Human), UniProt Q13315). The experiment is described as follows: ATM kinase assay (IC50 ATM), TR-FRET. The class given is biochemical. On the procedure: ATM Kinase Assay—Determination of ATM Inhibition (IC50 ATM):
The IC50 value was determined with the aid of a biochemical ATM kinase assay. The assay consists of two steps: the enzymatic reaction and the detection step. Firstly, ATM (ataxia telangiectasia mutated) protein and the test substance are incubated at different concentrations with addition of substrate protein p53 and ATP. ATM mediates the phosphorylation of p53 at several positions, including at amino acid S15. The amount of phosphorylated p53 is determined with the aid of specific antibodies and the TR-FRET technique. The enzymatic ATM assay is carried out as TR-FRET (HTRF™, Cisbio Bioassays) based 384-well assay. In the first step, purified human recombinant ATM (human ATM, full length, GenBank ID NM_000051, expressed in a mammal cell line) is incubated in assay buffer for 15 minutes with the ATM inhibitor in various concentrations and without test substance as negative or neutral control. The assay buffer comprises 25 mM HEPES pH 8.0, 10 mM Mg(CH3COO)2, 1 mM MnCl2, 0.1% BSA and 0.01% Brij® 35, 5 mM dithiothreitol (DTT). […] In the second step, purified human recombinant cmyc-labelled p53 (human p53, full length, GenBank ID BC003596, expressed in Sf21 insect cells) and ATP are added, and the reaction mixture is incubated at 22° C. for 30-35 minutes. The pharmacologically relevant assay volume is 5 μl. […] The enzymatic reaction is stopped by addition of EDTA. […] After incubation, usually for 2 hours (between 1.5 and 15 h), for signal development, the plates are analysed in a plate reader (EnVision, PerkinElmer) using TRF mode (and with laser excitation). […] The measurement data were processed by means of Genedata Screener software. IC50 determinations are carried out, in particular, by fitting a dose/action curve to the data points by means of nonlinear regression analysis.
Background: Time-resolved FRET reads energy transfer from a long-lived donor to a nearby acceptor.

For another experiment, the target named is PI3K p110δ/p85α (human) (Homo sapiens (Human), UniProt O00329). The experiment is described as follows: PI3K p110δ/p85α (human), non-radioactive assay (HTRF). The class given is biochemical. The following applies: read-out: IC50 (PI3Kdelta). On the procedure:
(§1) The reaction was initiated by addition of MgATP solution. After an incubation time of 30 min at room temperature, the reaction was stopped by addition of a solution consisting of EDTA and biotinylated phosphatidylinositol 3,4,5-trisphosphate. Finally, the detection buffer, consisting of a europium-labelled anti-GST monoclonal antibody, a GST-labelled GRP1 PH domain and streptavidin allophycocyanin, was added. The plate was read out via homogeneous time-resolved fluorescence (HTRF) and the corresponding signals were evaluated via the formula HTRF=10000×(Em665 nm/Em620 nm).

For a further experiment, the target named is PI3K p110α/p85α (human) (Homo sapiens (Human), UniProt P42336). The experiment is described as follows: PI3K p110α/p85α (human), non-radioactive assay (HTRF). It counts as biochemical. The following applies: read-out: IC50 (PI3Kalpha). Here is the method:
The reaction was initiated by addition of MgATP solution. After incubation at room temperature for 40 minutes, the reaction was stopped by addition of a solution consisting of EDTA and biotinylated phosphatidylinositol 3,4,5-trisphosphate. Finally, the detection buffer, consisting of a europium-labelled anti-GST monoclonal antibody, a GST-labelled GRP1 PH domain and streptavidin allophycocyanin, was added. The plate was read out via homogeneous time-resolved fluorescence (HTRF) and the corresponding signals were evaluated via the formula HTRF=10000×(Em665 nm/Em620 nm).

The next experiment addresses PI3K (p120γ) (human) (Homo sapiens (Human), UniProt P48736). Nature of the experiment: PI3K (p120γ) (human), non-radioactive assay (HTRF). It counts as biochemical. The following applies: read-out: IC50 (PI3Kgamma). On the procedure: The reaction was initiated by addition of MgATP solution. After an incubation time of 30 min at room temperature, the reaction was stopped by addition of a solution consisting of EDTA and biotinylated phosphatidylinositol 3,4,5-trisphosphate. Finally, the detection buffer, consisting of a europium-labelled anti-GST monoclonal antibody, a GST-labelled GRP1 PH domain and streptavidin allophycocyanin, was added.

In the next experiment the target is PI3K p110β/p85α (human) (Homo sapiens (Human), UniProt P42338). Nature of the experiment: PI3K p110β/p85α (human), non-radioactive assay (HTRF). The class given is biochemical. The following applies: read-out: IC50 (PI3Kbeta). On the procedure: PI3K p110β/p85a (Human), Non-Radioactive Assay
as §1, with “PI3K p110β/p85α (human) was incubated in an assay buffer comprising 10 μM phosphatidylinositol 4,5-bisphosphate and MgATP (concentration as necessary). The reaction” for “The reaction”

Read-outs that look alike come from different tables or passages of the source.

Chain of human recombinant ATM (Q13315 whole entry): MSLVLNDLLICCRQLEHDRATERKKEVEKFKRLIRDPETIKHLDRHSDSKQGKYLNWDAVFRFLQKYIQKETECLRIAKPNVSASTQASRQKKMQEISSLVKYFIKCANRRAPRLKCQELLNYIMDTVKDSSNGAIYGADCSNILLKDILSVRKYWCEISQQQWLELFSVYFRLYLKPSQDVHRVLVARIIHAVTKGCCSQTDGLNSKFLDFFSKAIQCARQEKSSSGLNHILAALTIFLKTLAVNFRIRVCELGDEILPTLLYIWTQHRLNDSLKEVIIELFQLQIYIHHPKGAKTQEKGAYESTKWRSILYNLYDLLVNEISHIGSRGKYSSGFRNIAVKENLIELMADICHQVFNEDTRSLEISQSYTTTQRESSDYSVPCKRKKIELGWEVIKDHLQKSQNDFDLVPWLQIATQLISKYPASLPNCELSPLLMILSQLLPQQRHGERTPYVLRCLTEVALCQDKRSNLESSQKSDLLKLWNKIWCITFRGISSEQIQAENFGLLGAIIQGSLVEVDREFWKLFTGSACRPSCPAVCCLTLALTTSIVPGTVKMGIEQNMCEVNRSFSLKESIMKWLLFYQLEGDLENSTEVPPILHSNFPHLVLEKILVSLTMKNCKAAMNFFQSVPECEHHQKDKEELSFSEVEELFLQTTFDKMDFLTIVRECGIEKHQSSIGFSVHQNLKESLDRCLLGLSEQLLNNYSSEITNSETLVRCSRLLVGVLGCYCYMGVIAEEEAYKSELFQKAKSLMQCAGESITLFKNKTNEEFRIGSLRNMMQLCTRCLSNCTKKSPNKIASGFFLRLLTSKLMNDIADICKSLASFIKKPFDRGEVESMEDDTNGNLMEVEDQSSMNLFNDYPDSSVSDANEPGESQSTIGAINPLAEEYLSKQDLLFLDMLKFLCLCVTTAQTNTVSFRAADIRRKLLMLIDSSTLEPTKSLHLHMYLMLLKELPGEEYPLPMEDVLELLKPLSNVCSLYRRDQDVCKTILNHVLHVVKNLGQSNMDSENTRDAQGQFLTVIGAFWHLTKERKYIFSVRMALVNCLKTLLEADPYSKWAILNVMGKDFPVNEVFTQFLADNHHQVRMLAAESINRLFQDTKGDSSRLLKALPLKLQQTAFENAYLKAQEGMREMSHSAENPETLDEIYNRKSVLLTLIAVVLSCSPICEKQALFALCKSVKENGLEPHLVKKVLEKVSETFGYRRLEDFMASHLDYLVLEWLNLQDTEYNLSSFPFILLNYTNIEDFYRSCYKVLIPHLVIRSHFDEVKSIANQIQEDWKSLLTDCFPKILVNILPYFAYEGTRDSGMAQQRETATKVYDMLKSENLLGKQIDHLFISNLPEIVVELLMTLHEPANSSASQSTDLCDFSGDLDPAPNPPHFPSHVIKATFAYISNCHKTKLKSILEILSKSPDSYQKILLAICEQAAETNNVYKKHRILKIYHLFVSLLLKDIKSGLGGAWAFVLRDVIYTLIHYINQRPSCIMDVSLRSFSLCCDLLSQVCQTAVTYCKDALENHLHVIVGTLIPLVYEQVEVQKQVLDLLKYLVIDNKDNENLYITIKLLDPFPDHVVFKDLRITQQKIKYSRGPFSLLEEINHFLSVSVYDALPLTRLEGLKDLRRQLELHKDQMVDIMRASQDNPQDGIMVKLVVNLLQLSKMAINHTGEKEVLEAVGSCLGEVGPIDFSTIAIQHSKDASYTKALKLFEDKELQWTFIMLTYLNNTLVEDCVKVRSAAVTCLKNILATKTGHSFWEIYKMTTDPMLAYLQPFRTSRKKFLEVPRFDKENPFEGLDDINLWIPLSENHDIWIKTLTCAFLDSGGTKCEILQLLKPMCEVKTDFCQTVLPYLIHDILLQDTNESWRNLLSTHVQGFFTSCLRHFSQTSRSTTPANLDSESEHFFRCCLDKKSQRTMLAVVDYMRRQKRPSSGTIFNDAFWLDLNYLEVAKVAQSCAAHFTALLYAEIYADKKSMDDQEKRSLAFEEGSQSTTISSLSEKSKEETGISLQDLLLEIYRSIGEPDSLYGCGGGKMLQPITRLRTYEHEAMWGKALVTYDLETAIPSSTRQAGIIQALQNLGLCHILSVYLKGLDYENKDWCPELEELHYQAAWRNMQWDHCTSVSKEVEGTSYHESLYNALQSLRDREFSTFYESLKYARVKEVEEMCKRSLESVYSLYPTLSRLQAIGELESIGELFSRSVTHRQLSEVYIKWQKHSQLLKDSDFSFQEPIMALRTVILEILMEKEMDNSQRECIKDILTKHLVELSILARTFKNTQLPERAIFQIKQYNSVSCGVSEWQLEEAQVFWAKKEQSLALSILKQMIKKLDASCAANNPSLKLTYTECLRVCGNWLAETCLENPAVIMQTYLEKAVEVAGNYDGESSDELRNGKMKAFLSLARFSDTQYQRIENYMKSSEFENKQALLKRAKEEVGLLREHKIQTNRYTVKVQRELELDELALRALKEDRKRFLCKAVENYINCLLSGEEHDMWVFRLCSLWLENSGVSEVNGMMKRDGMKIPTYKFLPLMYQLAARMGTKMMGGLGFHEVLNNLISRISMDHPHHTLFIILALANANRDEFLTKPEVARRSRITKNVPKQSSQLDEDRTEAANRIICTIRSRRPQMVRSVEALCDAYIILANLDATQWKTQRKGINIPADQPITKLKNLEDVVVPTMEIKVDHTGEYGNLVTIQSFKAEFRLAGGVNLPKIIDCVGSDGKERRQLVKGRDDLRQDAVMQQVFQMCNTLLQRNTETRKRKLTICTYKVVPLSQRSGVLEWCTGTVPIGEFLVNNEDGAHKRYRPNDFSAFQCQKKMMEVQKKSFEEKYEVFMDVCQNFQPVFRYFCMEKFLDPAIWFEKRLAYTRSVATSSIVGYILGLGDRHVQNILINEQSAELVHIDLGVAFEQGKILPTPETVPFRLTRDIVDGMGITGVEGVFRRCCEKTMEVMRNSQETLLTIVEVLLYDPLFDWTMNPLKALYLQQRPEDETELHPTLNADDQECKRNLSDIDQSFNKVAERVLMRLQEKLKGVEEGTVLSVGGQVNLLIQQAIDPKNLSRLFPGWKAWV
Chain of PI3K p110α/p85α (human) (P42336 whole entry, the tested form may be a part): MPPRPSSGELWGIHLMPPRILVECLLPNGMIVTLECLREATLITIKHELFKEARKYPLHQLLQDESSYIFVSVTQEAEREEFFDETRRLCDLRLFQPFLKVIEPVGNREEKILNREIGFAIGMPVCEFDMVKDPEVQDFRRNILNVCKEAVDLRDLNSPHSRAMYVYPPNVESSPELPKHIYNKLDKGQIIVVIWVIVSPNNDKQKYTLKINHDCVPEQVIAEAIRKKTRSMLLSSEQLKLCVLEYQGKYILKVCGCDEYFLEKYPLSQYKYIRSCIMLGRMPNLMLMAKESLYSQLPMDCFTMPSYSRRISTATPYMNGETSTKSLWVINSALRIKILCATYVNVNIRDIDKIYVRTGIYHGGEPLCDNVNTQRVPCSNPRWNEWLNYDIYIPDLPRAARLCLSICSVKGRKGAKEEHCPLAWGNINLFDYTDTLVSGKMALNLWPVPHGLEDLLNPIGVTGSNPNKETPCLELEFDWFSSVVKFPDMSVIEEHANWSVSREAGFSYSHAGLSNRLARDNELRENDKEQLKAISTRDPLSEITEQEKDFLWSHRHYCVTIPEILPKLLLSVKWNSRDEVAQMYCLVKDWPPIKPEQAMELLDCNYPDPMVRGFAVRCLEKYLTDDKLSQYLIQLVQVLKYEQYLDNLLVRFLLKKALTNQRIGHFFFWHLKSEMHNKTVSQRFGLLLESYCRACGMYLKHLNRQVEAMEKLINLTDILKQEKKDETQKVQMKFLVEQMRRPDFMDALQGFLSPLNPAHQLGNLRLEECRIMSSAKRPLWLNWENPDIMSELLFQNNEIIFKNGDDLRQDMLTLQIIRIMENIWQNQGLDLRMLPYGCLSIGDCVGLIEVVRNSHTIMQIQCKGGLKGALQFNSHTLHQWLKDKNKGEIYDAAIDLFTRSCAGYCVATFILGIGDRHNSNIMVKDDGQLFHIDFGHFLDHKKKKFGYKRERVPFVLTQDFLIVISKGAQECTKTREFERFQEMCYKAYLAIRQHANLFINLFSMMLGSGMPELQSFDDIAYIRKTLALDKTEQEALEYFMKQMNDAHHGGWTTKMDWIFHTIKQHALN
Chain of PI3K p110α/p85α (human) (P27986 whole entry partner, the tested form may be a part): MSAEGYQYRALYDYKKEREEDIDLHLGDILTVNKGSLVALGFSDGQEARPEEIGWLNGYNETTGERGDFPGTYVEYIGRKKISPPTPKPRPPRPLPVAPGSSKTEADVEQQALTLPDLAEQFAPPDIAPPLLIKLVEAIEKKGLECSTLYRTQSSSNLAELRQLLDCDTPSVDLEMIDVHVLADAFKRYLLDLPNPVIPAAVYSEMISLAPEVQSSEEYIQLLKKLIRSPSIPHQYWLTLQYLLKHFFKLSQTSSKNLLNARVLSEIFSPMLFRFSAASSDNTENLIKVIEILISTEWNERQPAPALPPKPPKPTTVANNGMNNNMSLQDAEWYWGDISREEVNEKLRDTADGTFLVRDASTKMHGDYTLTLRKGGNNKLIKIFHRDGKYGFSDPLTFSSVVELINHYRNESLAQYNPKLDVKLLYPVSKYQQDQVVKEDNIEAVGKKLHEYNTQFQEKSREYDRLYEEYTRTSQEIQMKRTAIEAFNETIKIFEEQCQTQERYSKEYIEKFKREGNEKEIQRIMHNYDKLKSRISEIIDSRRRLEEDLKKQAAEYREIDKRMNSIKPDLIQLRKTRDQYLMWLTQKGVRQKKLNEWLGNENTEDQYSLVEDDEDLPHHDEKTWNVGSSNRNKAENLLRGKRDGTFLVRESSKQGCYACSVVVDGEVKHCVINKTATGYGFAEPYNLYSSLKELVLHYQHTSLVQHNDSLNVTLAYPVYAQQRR

Take `CCn1cc(-c2cc3c(cc2OC)ncc2c3n(-c3c(F)cncc3OC)c(=O)n2C)cn1` [Example 13]: the IC50 against mTOR (human) is over 10 µM; in experiment [1], under 0.2 µM; on human recombinant ATM it was under 0.001 µM; at human recombinant ATM (10 μM ATP, p53 substrate), under 0.001 µM; on PI3K p110δ/p85α (human), over 10 µM; at PI3K p110α/p85α (human), over 5 µM. For the same compound, the IC50 on PI3K (p120γ) (human) and at PI3K p110β/p85α (human) was over 30 µM throughout.
